What was measured:
Glucocorticoid receptor [1] = target: T1, Glucocorticoid receptor (Homo sapiens, UniProt P04150); assay: Displacement of fluorescent-labelled Dexamethasone from glucocorticoid receptor
T1 sequence (P04150 whole entry): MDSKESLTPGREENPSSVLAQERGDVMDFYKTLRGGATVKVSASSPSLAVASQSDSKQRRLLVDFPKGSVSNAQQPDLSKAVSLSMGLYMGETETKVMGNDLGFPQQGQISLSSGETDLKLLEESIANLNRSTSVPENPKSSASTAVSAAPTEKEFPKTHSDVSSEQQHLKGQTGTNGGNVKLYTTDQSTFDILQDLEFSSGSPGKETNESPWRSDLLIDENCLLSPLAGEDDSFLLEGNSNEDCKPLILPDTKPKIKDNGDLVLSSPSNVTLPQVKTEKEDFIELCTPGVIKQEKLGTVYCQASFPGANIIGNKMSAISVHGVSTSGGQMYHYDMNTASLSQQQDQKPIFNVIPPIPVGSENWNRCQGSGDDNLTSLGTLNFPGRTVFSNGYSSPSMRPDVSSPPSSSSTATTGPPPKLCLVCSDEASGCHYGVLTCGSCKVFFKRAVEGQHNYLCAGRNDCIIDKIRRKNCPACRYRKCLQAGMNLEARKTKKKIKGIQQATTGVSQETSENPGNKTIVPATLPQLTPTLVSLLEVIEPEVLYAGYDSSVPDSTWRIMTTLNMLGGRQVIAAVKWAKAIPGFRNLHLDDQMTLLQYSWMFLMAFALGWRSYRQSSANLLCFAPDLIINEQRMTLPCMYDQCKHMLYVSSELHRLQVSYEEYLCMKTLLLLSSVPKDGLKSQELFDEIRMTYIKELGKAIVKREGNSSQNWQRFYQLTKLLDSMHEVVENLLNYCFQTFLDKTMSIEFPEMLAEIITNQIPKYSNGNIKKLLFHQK

Glucocorticoid receptor [2] = target: T1, Glucocorticoid receptor; assay: Agonist activity at glucocorticoid receptor in human A549 cells by NF-kappaB transrepression assay; format: functional, cell-based
Glucocorticoid receptor [3] = target: T1, Glucocorticoid receptor; assay: Agonist activity at GR in human A549 cells transfected with luciferase gene linked to MMTV promoter assessed as luciferase transactivation activity; format: functional, cell-based
[4] = Selectivity ratio of progesterone receptor to glucocorticoid receptor
[5] = Selectivity ratio of androgen receptor to glucocorticoid receptor

Row | Compound | IC50 (Glucocorticoid receptor [1]) [nM] | IC50 (Glucocorticoid receptor [2]) [nM] | IC50 (Glucocorticoid receptor [3]) [nM] | Selectivity ratio [4] | Selectivity ratio [5]
1 | Cc1cc(NC[C@H](C)NS(=O)(=O)C2CC2)c2cnn(-c3cccc(C(=O)NCC(N)=O)c3)c2c1 | 7.94 | 5.01 | 200 | – | –
2 | Cc1cc(C)c(S(=O)(=O)N[C@@H](C)CNc2cc(C)cc3c2cnn3-c2cccc(N3CCCC(CO)C3)c2)c(C)c1 (single isomer, unassigned; isomer 1) | 25.1 | 39.8 | 631 | – | –
3 | CCCS(=O)(=O)N[C@@H](C)CNc1cc(C)cc2c1cnn2-c1cccc(C(=O)NC(C)C)c1 | 12.6 | 20 | 79.4 | – | –
4 | Cc1cc(NC[C@H](C)NS(=O)(=O)C(C)C)c2cnn(-c3cccc(C(=O)NC(C)C)c3)c2c1 | 39.8 | 7.94 | 50.1 | – | –
5 | COc1cccc(-n2ncc3c(NC[C@H](C)NS(=O)(=O)c4c(C)cc(C)cc4C)cc(C)cc32)c1 | – | 50.1 | 200 | 10 | > 100
6 | Cc1cc(C)c(S(=O)(=O)N[C@@H](C)CNc2cc(C)cc3c2cnn3-c2ccc(N[C@H](C)C(N)=O)cc2)c(C)c1 | 25.1 | 7.94 | 158 | – | –
7 | Cc1cc(C)c(S(=O)(=O)N[C@@H](C)CNc2cc(C)cc3c2cnn3-c2ccc(S(C)(=O)=O)cc2)c(C)c1 | 31.6 | 5.01 | 12.6 | 10 | > 100
8 | Cc1cc(C)c(S(=O)(=O)N[C@@H](C)CNc2cc(C)cc3c2cnn3-c2ccc(N[C@@H](C)C(N)=O)cc2)c(C)c1 | 31.6 | 7.94 | 15.8 | – | –
9 | Cc1cc(NC[C@H](C)NS(=O)(=O)C2CC2)c2cnn(-c3cccc(C(=O)N[C@@H](C)C(N)=O)c3)c2c1 | 39.8 | 5.01 | 200 | – | –
10 | Cc1cc(C)c(S(=O)(=O)N[C@@H](C)CNc2cc(C)cc3c2cnn3-c2cccc(N3CCCC(CO)C3)c2)c(C)c1 (stereo in doubt; 14l) | 25.1 | 20 | 251 | – | –
11 | Cc1cc(C)c(S(=O)(=O)N[C@@H](C)CNc2cc(C)cc3c2cnn3-c2cccc(F)c2)c(C)c1 | 15.8 | 7.94 | 25.1 | 10 | > 100
12 | Cc1cc(C)c(S(=O)(=O)N[C@@H](C)CNc2cc(C)cc3c2cnn3-c2cccc(N3CCCC(CO)C3)c2)c(C)c1 (single isomer, unassigned; isomer 2) | 15.8 | 39.8 | 316 | – | –
13 | Cc1cc(C)c(S(=O)(=O)NC[C@@H](C)Nc2cc(C)cc3c2cnn3-c2ccc(F)cc2)c(C)c1 | 12.6 | 6.31 | 50.1 | – | –
14 | Cc1cc(NC[C@H](C)NS(=O)(=O)C2CC2)c2cnn(-c3cccc(C(=O)N4CCCC(CO)C4)c3)c2c1 (some centres not stated) | 126 | 251 | > 6310 | – | –
15 | Cc1cc(NC[C@H](C)NS(C)(=O)=O)c2cnn(-c3cccc(C(=O)NC(C)C)c3)c2c1 | 126 | 200 | 2000 | – | –
16 | Cc1cc(NC[C@H](C)NS(=O)(=O)C2CC2)c2cnn(-c3cccc(C(=O)N[C@H](C)C(N)=O)c3)c2c1 | 31.6 | 3.16 | 126 | – | –
17 | CNc1ccc(-n2ncc3c(NC[C@H](C)NS(=O)(=O)c4c(C)cc(C)cc4C)cc(C)cc32)cc1 | 20 | 5.01 | 251 | – | –
18 | Cc1cc(NC[C@H](C)NS(=O)(=O)C2CC2)c2cnn(-c3cccc(C(=O)N4CCC[C@H]4C(N)=O)c3)c2c1 | 158 | 794 | 3980 | – | –
19 | Cc1cc(C)c(S(=O)(=O)N[C@@H](C)CNc2cc(C)cc3c2cnn3-c2ccc(NCC(N)=O)cc2)c(C)c1 | 15.8 | 3.16 | 63.1 | – | –
20 | COc1ccc(-n2ncc3c(NC[C@H](C)NS(=O)(=O)c4c(C)cc(C)cc4C)cc(C)cc32)cc1 | 15.8 | 12.6 | 50.1 | 10 | > 100

Stronger by IC50 (Glucocorticoid receptor [2]), values ahead:

Row | IC50 (Glucocorticoid receptor [1]) [nM] | IC50 (Glucocorticoid receptor [2]) [nM] | IC50 (Glucocorticoid receptor [3]) [nM] | Selectivity ratio [4] | Selectivity ratio [5] | Compound
21 | 31.6 | 2.51 | 50.1 | – | – | Cc1cc(NC[C@H](C)NS(=O)(=O)C2CC2)c2cnn(-c3cccc(C(=O)N(C)[C@H](C)C(N)=O)c3)c2c1
22 | 15.8 | 2 | 12.6 | – | – | Cc1cc(NC[C@H](C)NS(=O)(=O)C2CC2)c2cnn(-c3cccc(C(=O)NC(C)C)c3)c2c1
23 | 12.6 | 2 | 10 | – | – | Cc1cc(C)c(S(=O)(=O)N[C@@H](C)CNc2cc(C)cc3c2cnn3-c2ccc(NC(C)C)cc2)c(C)c1
24 | 15.8 | 2 | 5.01 | 10 | > 100 | Cc1cc(C)c(S(=O)(=O)N[C@@H](C)CNc2cc(C)cc3c2cnn3-c2ccc(C#N)cc2)c(C)c1
25 | 7.94 | 1.26 | 7.94 | – | – | Cc1cc(C)c(S(=O)(=O)N[C@@H](C)CNc2cc(C)cc3c2cnn3-c2ccc(NC3CC3)cc2)c(C)c1
26 | 15.8 | 1.26 | 3.98 | 10 | > 100 | Cc1cc(C)c(S(=O)(=O)N[C@@H](C)CNc2cc(C)cc3c2cnn3-c2ccc(F)cc2)c(C)c1
27 | 5.01 | 0.501 | 1.58 | – | – | Cc1cc(C)c(S(=O)(=O)N[C@@H](C)CNc2cc(C)cc3c2cnn3-c2cccc(N[C@@H](C)C(N)=O)c2)c(C)c1
28 | 7.94 | 0.316 | 1.26 | – | – | Cc1cc(C)c(S(=O)(=O)N[C@@H](C)CNc2cc(C)cc3c2cnn3-c2cccc(NC3CC3)c2)c(C)c1
29 | 12.6 | 0.251 | 2.51 | – | – | Cc1cc(C)c(S(=O)(=O)N[C@@H](C)CNc2cc(C)cc3c2cnn3-c2cccc(NCC(N)=O)c2)c(C)c1
30 | 15.8 | 0.2 | 2 | – | – | Cc1cc(C)c(S(=O)(=O)N[C@@H](C)CNc2cc(C)cc3c2cnn3-c2cccc(N[C@H](C)C(N)=O)c2)c(C)c1
31 | 6.31 | 0.126 | 0.501 | – | – | Cc1cc(C)c(S(=O)(=O)N[C@@H](C)CNc2cc(C)cc3c2cnn3-c2cccc(NC(C)C)c2)c(C)c1
32 | 15.8 | 0.0794 | 0.316 | – | – | CCN(C[C@](O)(CNc1cccc2c1cnn2-c1ccc(F)cc1)C(F)(F)F)C(=O)c1c(Cl)cccc1Cl
